Laboratory results taken from patent US20240409556A1, “BENZOPIPERAZINE AND RELATED ANALOGS FOR INHIBITING YAP/TAZ-TEAD” (Springworks Therapeutics, Inc., priority 2023, published 2024).

Tests used:
Type in all cases: cell-based
[1] = test system: YAP/TAZ-TEAD transcription; test: Reporter gene assay for measuring the inhibition of YAP/TAZ-TEAD transcription (TEAD-responsive element luciferase reporter in Hek293T cells); conditions: 24 hours incubation
Method in brief: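 HEK293T cells transiently transfected with a TEAD-responsive luciferase reporter were exposed to compounds for 24 h at 37° C/5% CO2, then luminescence was read. Percent inhibition normalised to vehicle (0%) and positive-control inhibitor (100%); IC50 derived.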

[2] = test system: NCI-H226 mesothelioma cell line; test: Mesothelioma cell line proliferation assay, NCI-H226 (ATPlite); conditions: NCI-H226 cells, 6 days with compound, cell viability by ATPlite
Method: (§1) Example 57: Activity of Compounds of the Disclosure in Mesothelioma Cell Line Proliferation Assays
(§2) Mesothelioma cell lines, NCI-H226 and NCI-H2052 (both sourced from the ATCC cell culture collection) were plated in 96-well plates (Corning® 96 Well White Polystyrene Microplate clear flat bottom, white polystyrene (TC-Treated)), at 1500 cells/well in full medium (RPMI 1640 ATCC modification with L-glutamine, HEPES, Phenol Red, Sodium Pyruvate, High glucose, Low sodium bicarbonate and 10% fetal bovine serum). Cells were incubated overnight at 37° C. in an incubator with 5% CO2. Then compounds, dissolved in DMSO, were added in dose-response. Cells were incubated with compound dilutions for another 6 days at 37° C. in an incubator with 5% CO2. Cell viability was quantitated using the ATPlite kit (Perkin-Elmer) and the luminescence was read-out using an Envision instrument (Perkin-Elmer). The amount of relative light units produced using the ATPlite kit was used to calculate percent of inhibition.
(§3) The activities of some example compounds are depicted in Table 4. The activity ranges A, B and C refer to EC50 values in the mesothelioma cell line proliferation assay as described as follows: “A”: EC50<1 μM; “B”: 1 μM≤EC50≤10 μM and “C”: EC50>10 μM; NT: not tested.

[3] = test system: NCI-H2052 mesothelioma cell line; test: Mesothelioma cell line proliferation assay, NCI-H2052 (ATPlite); conditions: NCI-H2052 cells, 6 days with compound, cell viability by ATPlite
Method: as §1, §2, §3

SMILES	IC50 [1]	EC50 ([2]; Homo sapiens, 144 h)	EC50 ([3]; Homo sapiens, 144 h)	EC50 [2]	EC50 [3]	IC50 ([1]; Homo sapiens, HEK-293T, 24 h)
C=CC(=O)N1CCN2c3ccccc3N(c3ccc(C(F)(F)F)cc3)CC2C1 (single isomer, unassigned) [14-En1, (R)- or (S)-1-(6-(4-(trifluoromethyl)phenyl)-1,2,4,4a,5,6-hexahydro-3H-pyrazino[1,2-a]quinoxalin-3-yl)prop-2-en-1-one]	< 1000 nM	< 1000 nM	< 1000 nM	–	–	–
C=CC(=O)N1CCN2c3ccccc3N(c3ccc(C(F)(F)F)cc3)CC2C1 (single isomer, unassigned) [14-En2, (R)- or (S)-1-(6-(4-(trifluoromethyl)phenyl)-1,2,4,4a,5,6-hexahydro-3H-pyrazino[1,2-a]quinoxalin-3-yl)prop-2-en-1-one]	< 1000 nM	–	–	< 1000 nM	< 1000 nM	–
CC(=O)N1CCN2c3ccccc3N(c3ccc(C(F)(F)F)cc3)CC2C1 (single isomer, unassigned) [15-En2, (R)- or (S)-1-(6-(4-(trifluoromethyl)phenyl)-1,2,4,4a,5,6-hexahydro-3H-pyrazino[1,2-a]quinoxalin-3-yl)ethan-1-one]	< 1000 nM	–	–	< 1000 nM	< 1000 nM	–
CNS(=O)(=O)N1CCN2c3ccccc3N(c3ccc(C(F)(F)F)cc3)CC2C1 (single isomer, unassigned) [32-En2, (R)- or (S)-N-methyl-6-(4-(trifluoromethyl)phenyl)-1,2,4,4a,5,6-hexahydro-3H-pyrazino[1,2-a]quinoxaline-3-sulfonamide]	< 1000 nM	–	–	< 1000 nM	–	–
CC(=O)N1CCN2c3nccnc3N(c3ccc(C(F)(F)F)cc3)CC2C1 (single isomer, unassigned) [40-En1, (R)- or (S)-1-(5-(4-(trifluoromethyl)phenyl)-5,6,6a,7,9,10-hexahydro-8H-dipyrazino[1,2-a:2′,3′-e]pyrazin-8-yl)ethan-1-one]	< 1000 nM	< 1000 nM	< 1000 nM	–	–	–
CC(=O)NCC1CN(c2ccc(C(F)(F)F)cc2)c2cc(Cl)cnc2O1 (single isomer, unassigned) [75-En2, (R)- or (S)-N-((7-chloro-1-(4-(trifluoromethyl)phenyl)-2,3-dihydro-1H-pyrido[2,3-b][1,4]oxazin-3-yl)methyl)acetamide]	< 1000 nM	< 1000 nM	< 1000 nM	–	–	–
CC(=O)NCC1CN(c2ccc(C(F)(F)F)cc2)c2ccc(C)nc2O1 (single isomer, unassigned) [77-En1, (R)- or (S)-N-((6-methyl-1-(4-(trifluoromethyl)phenyl)-2,3-dihydro-1H-pyrido[2,3-b][1,4]oxazin-3-yl)methyl)acetamide]	< 1000 nM	< 1000 nM	< 1000 nM	–	–	–
CC(=O)NCC1CN(c2ccc(C(F)(F)F)cc2)c2ccc(C3CC3)nc2O1 (single isomer, unassigned) [81-En1, (R)- or (S)-N-((6-cyclopropyl-1-(4-(trifluoromethyl)phenyl)-2,3-dihydro-1H-pyrido[2,3-b][1,4]oxazin-3-yl)methyl)acetamide]	–	< 1000 nM	< 1000 nM	–	–	< 1000 nM
CC(=O)NCC1CN(c2ccc(C(F)(F)F)cc2)c2ccc(N(C)C)nc2O1 (single isomer, unassigned) [87-En1, (R)- or (S)-N-((6-(dimethylamino)-1-(4-(trifluoromethyl)phenyl)-2,3-dihydro-1H-pyrido[2,3-b][1,4]oxazin-3-yl)methyl)acetamide]	< 1000 nM	< 1000 nM	< 1000 nM	–	–	–
C=CC(=O)N1CCN2c3nccnc3N(c3ccc(C(F)(F)F)cc3)CC2C1 (centres unmarked) [41-En1, 1-(5-(4-(trifluoromethyl)phenyl)-5,6,6a,7,9,10-hexahydro-8H-dipyrazino[1,2-a:2′,3′-e]pyrazin-8-yl)prop-2-en-1-one]	–	< 1000 nM	< 1000 nM	–	–	–
C=CC(=O)N1CCN2c3nccnc3N(c3ccc(C(F)(F)F)cc3)CC2C1 (centres unmarked) [41-En2, 1-(5-(4-(trifluoromethyl)phenyl)-5,6,6a,7,9,10-hexahydro-8H-dipyrazino[1,2-a:2′,3′-e]pyrazin-8-yl)prop-2-en-1-one]	–	–	–	< 1000 nM	< 1000 nM	–
O=C(O)C1CCN2c3ccccc3N(c3ccc(C(F)(F)F)cc3)CC2C1 (stereo not drawn) [65B, (cis)- or (trans)-5-(4-(trifluoromethyl)phenyl)-6,6a,7,8,9,10-hexahydro-5H-pyrido[1,2-a]quinoxaline-8-carboxylic acid]	–	< 1000 nM	< 1000 nM	–	–	–
C=CC(=O)N1CCN2c3ccccc3N(c3ccc(C(F)(F)F)cc3)CC2C1 (centres unmarked) [compound 14, 1-(6-(4-(trifluoromethyl)phenyl)-1,2,4,4a,5,6-hexahydro-3H-pyrazino[1,2-a]quinoxalin-3-yl)prop-2-en-1-one]	–	–	–	< 1000 nM	–	< 1000 nM

The remaining lines, values ahead:

IC50 [1]	EC50 ([2]; Homo sapiens, 144 h)	EC50 ([3]; Homo sapiens, 144 h)	EC50 [2]	EC50 [3]	IC50 ([1]; Homo sapiens, HEK-293T, 24 h)	SMILES
–	< 1000 nM	< 1000 nM	–	–	< 1000 nM	C=CC(=O)NCC1CN(c2ccc(C(F)(F)F)cc2)c2cccnc2N1C (single isomer, unassigned) [27-En1]
< 1000 nM	–	–	< 1000 nM	< 1000 nM	–	C=CC(=O)NCC1CN(c2ccc(C(F)(F)F)cc2)c2cccnc2N1C (single isomer, unassigned) [27-En2]
–	< 1000 nM	< 1000 nM	–	–	< 1000 nM	CC(=O)N1CCN2c3ncccc3N(c3ccc(C(F)(F)F)cc3)CC2C1 (single isomer, unassigned) [29-En1, (R)- or (S)-1-(5-(4-(trifluoromethyl)phenyl)-5,6,6a,7,9,10-hexahydro-8H-pyrazino[1,2-a]pyrido[3,2-e]pyrazin-8-yl)ethan-1-one]
–	–	–	< 1000 nM	–	< 1000 nM	CC(=O)NCC1CN(c2ccc(C(F)(F)F)cc2)c2ccccc2N1 (single isomer, unassigned) [34-En2, (R)- or (S)-N-((4-(4-(trifluoromethyl)phenyl)-1,2,3,4-tetrahydroquinoxalin-2-yl)methyl)acetamide]
< 1000 nM	–	–	< 1000 nM	–	–	CC(=O)NCC1CN(c2ccc(C(F)(F)F)cc2)c2ccccc2O1 (single isomer, unassigned) [36-En1, (R)- or (S)-N-((4-(4-(trifluoromethyl)phenyl)-3,4-dihydro-2H-benzo[b][1,4]oxazin-2-yl)methyl)acetamide]
< 1000 nM	< 1000 nM	< 1000 nM	–	–	–	CNS(=O)(=O)N1CCN2c3ncccc3N(c3ccc(C(F)(F)F)cc3)CC2C1 (single isomer, unassigned) [45-En2, (R)- or (S)-N-methyl-5-(4-(trifluoromethyl)phenyl)-5,6,6a,7,9,10-hexahydro-8H-pyrazino[1,2-a]pyrido[3,2-e]pyrazine-8-sulfonamide]
< 1000 nM	< 1000 nM	< 1000 nM	–	–	–	CC(C)C(=O)N1CCN2c3ncccc3N(c3ccc(C(F)(F)F)cc3)CC2C1 (single isomer, unassigned) [47-En1, (R)- or (S)-2-methyl-1-(5-(4-(trifluoromethyl)phenyl)-5,6,6a,7,9,10-hexahydro-8H-pyrazino[1,2-a]pyrido[3,2-e]pyrazin-8-yl)propan-1-one]
< 1000 nM	< 1000 nM	< 1000 nM	–	–	–	CC(=O)NCC1CN(c2ccc(C(F)(F)F)cc2)c2cccnc2O1 (single isomer, unassigned) [49-En1, (R)- or (S)-N-((1-(4-(trifluoromethyl)phenyl)-2,3-dihydro-1H-pyrido[2,3-b][1,4]oxazin-3-yl)methyl)acetamide]
< 1000 nM	< 1000 nM	< 1000 nM	–	–	–	CNC(=O)N1CCN2c3ncccc3N(c3ccc(C(F)(F)F)cc3)CC2C1 (single isomer, unassigned) [52-En2, (R)- or (S)-N-methyl-5-(4-(trifluoromethyl)phenyl)-5,6,6a,7,9,10-hexahydro-8H-pyrazino[1,2-a]pyrido[3,2-e]pyrazine-8-carboxamide]
–	< 1000 nM	< 1000 nM	–	–	< 1000 nM	C=CC(=O)NC[C@H]1CN(c2ccc(C(F)(F)F)cc2)c2cccnc2N1 [38-En1, (S)—N-((1-(4-(trifluoromethyl)phenyl)-1,2,3,4-tetrahydropyrido[2,3-b]pyrazin-3-yl)methyl)acrylamide]
–	< 1000 nM	< 1000 nM	–	–	–	C=CC(=O)NCC1CN(c2ccc(C(F)(F)F)cc2)c2cccnc2O1 (centres unmarked) [48-En1, N-((1-(4-(trifluoromethyl)phenyl)-2,3-dihydro-1H-pyrido[2,3-b][1,4]oxazin-3-yl)methyl)acrylamide]
–	–	–	< 1000 nM	< 1000 nM	–	C=CC(=O)NCC1CN(c2ccc(C(F)(F)F)cc2)c2cccnc2O1 (centres unmarked) [48-En2, N-((1-(4-(trifluoromethyl)phenyl)-2,3-dihydro-1H-pyrido[2,3-b][1,4]oxazin-3-yl)methyl)acrylamide]
–	< 1000 nM	< 1000 nM	–	–	–	O=C(O)C1CCN2c3ncccc3N(c3ccc(C(F)(F)F)cc3)CC2C1 [96B-En1, (6aS,8S)- or (6aR,8S)- or (6aR,8R)- or (6aS,8R)-5-(4-(trifluoromethyl)phenyl)-6,6a,7,8,9,10-hexahydro-5H-dipyrido[1,2-a:3′,2′-e]pyrazine-8-carboxylic acid]
